Several values for one entry are separate records, joined by “and”; a condition that tells them apart may be missing. Equal values may be shown once. Marks after values point to notes of the source that are not given here.
Key:
[1] = tested on: H-460 lung large cell carcinoma cells; assay: Tumor cell growth in vitro (sulforhodamine B), H-460; assay type: cell-based, human; conditions: Homo sapiens, NCI-H460, rounded off to one digit, read-out: Inhibition of tumor cell growth in vitro, IC50
Protocol: (§1) Growth of cell lines. Comparisons of different inhibitors with regard to suppression of human cancer cell growth were made by the University of Michigan Cancer Center in vitro Drug Evaluation Core Laboratory. MCF-7 breast carcinoma cells, HT-29 colon adenocarcinoma cells, H-460 lung large cell carcinoma cells, and 9L brain gliosarcoma cells were grown in RPMI 1640 medium with 5% fetal bovine serum, 2 mM glutamine, 50 units/ml of penicillin, […] of streptomycin, and 0.1 mg/ml of neomycin. UMSCC-10A head and neck squamous carcinoma cells were grown in minimal essential medium with Earle salts and the same supplements. Medium components were from Sigma Chemical Co. Cells were plated in 96-well microtiter plates (1000 cells/well for H-460 and 9L cells, and 2000 cells/well for the other lines), and the test compounds were added 1 day later. The stock inhibitor solutions, 2 mM in 2 mM BSA, were diluted with different amounts of additional 2 mM BSA, then each solution was diluted 500-fold with growth medium to obtain the final concentrations indicated in the Figures and Tables.
(§2) Five days after plating the H-460 and 9L cells, or 6 days for the other lines, cell growth was evaluated by staining the adhering cells with sulforhodamine B and measuring the absorbance at 520 nm (Skehan, P. et al., “New Colorimetric Cytotoxicity Assay for Anticancer-Drug Screening,” J. Natl. Cancer Inst., 82:1107-1112 (1990)). The absorbance of the treated cultures is reported as percent of that of control cultures, to provide an estimate of the fraction of the cells that survived, or of inhibition of growth rate.

[2] = tested on: GlcCer synthase of MDCK cell homogenates; assay: Inhibition of ceramide glucosyltransferase (GlcCer synthase) of MDCK cell homogenates; assay type: biochemical, canine; conditions: triplicate ± SD, samples partly isomer mixtures
Protocol: Assay of sphingolipid enzymes. The inhibitors were evaluated for their effectiveness against the GlcCer synthase of MDCK cell homogenates by incubation in a thermostatted ultrasonic bath (Radin N. S. et al., “Ultrasonic Baths as Substitutes for Shaking Incubator Baths,” Enzyme, 45:67-70 (1991)) with octanoyl sphingosine and uridinediphospho[^3H]glucose (Shukla, G. S. et al., “Glucosylceramide Synthase of Mouse Kidney: Further Characterization and Improved Assay Method,” Arch. Biochem. Biophys., 283:372-378 (1990)). The lipoidal substrate (85 μg) was added in liposomes made from 0.57 mg dioleoylphosphatidylcholine and 0.1 mg of Na sulfatide. Confluent cells were washed, then homogenized with a micro-tip sonicator at 0° C. for 3×30 sec; ˜0.2 mg of protein was used in each assay tube. In the case of the aromatic inhibitors, the test compound was simply evaporated to dryness from solution in the incubation tube. […] The aliphatic inhibitors, which appeared to be less soluble in water, were added as part of the substrate liposomes.

[3] = tested on: MCF-7 breast carcinoma cells; assay: Tumor cell growth in vitro (sulforhodamine B), MCF-7; assay type: cell-based, human; conditions: Homo sapiens, MCF7, rounded off to one digit, read-out: Inhibition of tumor cell growth in vitro, IC50
Protocol: as §1, §2

[4] = tested on: UMSCC-10A head and neck squamous carcinoma cells; assay: Tumor cell growth in vitro (sulforhodamine B), UMSCC-10A; assay type: cell-based, human; conditions: Homo sapiens, rounded off to one digit, read-out: Inhibition of tumor cell growth in vitro, IC50
Protocol: as §1, §2

[5] = tested on: 9L brain gliosarcoma cells; assay: Tumor cell growth in vitro (sulforhodamine B), 9L; assay type: cell-based
Protocol: as §1, §2

[6] = tested on: HT-29 colon adenocarcinoma cells; assay: Tumor cell growth in vitro (sulforhodamine B), HT-29; assay type: cell-based, human; conditions: Homo sapiens, rounded off to one digit, read-out: Inhibition of tumor cell growth in vitro, IC50
Protocol: as §1, §2

In the case of `CCCCCCCCCCCCCCCC(=O)NC(CN1CCCC1)C(O)c1ccccc1` (racemic) [BML-119, 1-phenyl-2-palmitoylamino-3-pyrrolidino-1-propanol], the IC50 [1] is reported as 1000 nM, the “Inhibition at 5 μM” value ([2]; 5 μM inhibitor, 5 µM) is reported as 50% and 51 ± 2.3^e % and 49 ± 0.8^f % and the “% Inhibition at 80 μM” value ([2]; 80 μM inhibitor, 80 µM) is reported as 94 ± 1.4^b % and 97 ± 0.1^c % and 96 ± 0.1^d %. The IC50 [3] was 2000 nM, the IC50 [4] was 1000 nM and the activity at 1 µM ([5]; 9L cells, 1 μM inhibitor, read-out: growth, % of control growth) was 71%. The activity at 3 µM ([5]; 9L cells, 3 μM inhibitor, read-out: growth, % of control growth) was 3%, the IC50 ([5]; 9L, rounded off to one digit, read-out: Inhibition of tumor cell growth in vitro, IC50) was 1000 nM and the IC50 [6] was 1000 nM.

— patent publication US6916802B2, “Amino ceramide-like compounds and therapeutic methods of use” (Genzyme Corporation, priority 2002, dated 2005)
